The text below walks through data of patent publication US20070275953A1 (priority 2003, published 2007).

Data set [1] concerns the target T1, HIV-1 reverse transcriptase (Human immunodeficiency virus type 1 group M subtype B, UniProt P04585).
T1 construct: fixed-time assay for HIV-1 reverse transcriptase RNA dependent DNA polymerase activity; RT was purchased from Calbiochem; purchased Calbiochem CAL382129-500
Kind of data set: HIV-1 in vitro reverse transcriptase activity (fixed-time RNA dependent DNA polymerase assay). It is filed as biochemical. The note with it: residual RT activity, compound at 10 μM; RT activity without compound set at 100%. The protocol:
For the in vitro inhibition studies of the HIV-1 reverse transcriptase activity, stock solutions of the compounds of the present invention were prepared in dimethyl sulfoxide at a final concentration of 10 mM and kept at room temperature. Nevirapine was purchased from Boehringer Ingelheim. Efavirenz was received from the NIH AIDS Research and Reference Reagent Program.
In vitro inhibition studies used a fixed-time assay for HIV-1 reverse transcriptase RNA dependent DNA polymerase activity. RT was purchased from Calbiochem (ref CAL382129-500). One unit of RT corresponds to the amount of enzyme which incorporates one nanomole of [^3H]TTP in 10 minutes at 37° C.
Assays were performed in a final volume of 50 μl. […] Reaction mixtures were incubated at 37° C. for 10 min. The incorporation rate was determined by a standard trichloroacetic acid precipitation procedure (adapted from Current protocols in molecular biology. Eds Wiley, MGH Harvard medical school) and liquid scintillation counting using a Wallac scintillation counter.
The in vitro activity of the compounds, at a final concentration of 10 μM, on the reverse transcriptase (RT) activity of HIV-1 is derivable from the relative (%) reduction in RT activity. Hereby, the RT activity in the absence of any of the compounds is set at 100%.

Data set [2] deals with HIV-1 with WT (wild type) RT in P4 cells. The data set can be described thus: Anti-HIV assay on P4 cell line, WT RT. The data set is classed as cell-based. The conditions noted are these: P4 cell line, WT RT; for EC50: read-out: EC50 WT. As to the method:
(§1) For the antiviral and the cytotoxicity assays, the drugs were diluted in complete DMEM medium. In these experiments, drugs were diluted in triplicate wells in a 96-well plate in six, 5 fold serial dilutions.
Two days later, co-cultivation with SupT1 cells (a human T-cell lymphoma cell line) was initiated to facilitate rapid production of progeny virions. Production of virus was measured by using the Innotest HIV Antigen mAb p24 kit (Innogenetics). At the peak of production cultures were harvested and filtered. The virus stocks were stored at −80° C. until used.
Anti-HIV activity and cytotoxicity of the compounds were tested on a P4 cell line. […] The P4 cells were cultured in complete DMEM medium supplemented with 10% fetal bovine serum (FBS), 0.5% of Penicillin/Streptomycin and G418 at 0.5 mg/ml. Exponentially growing cells were trypsinized, centrifuged and split twice weekly at 5.10^4 cells/ml.
The P4 cells are HIV-infectible Hela-CD4 cells that carry the bacterial lacZ gene under the control of the HIV-1 long terminal repeat (LTR). In this cell line, transcription of the LacZ gene is driven by the HIV-1 LTR. […] In other words, in this system, the expression level of the β-galactosidase gene is proportional to the viral replication.
Briefly, in the anti-HIV assay 100 Ål of P4 cells were plated in 96-well plate at a concentration of 0.4 10^5 cells/ml and incubated at 37° C., 5% CO2. After 48 h, the medium was removed and 100 Ål of the different drugs dilutions were added to the cells. Four hours after the addition of the drugs all cells were infected with equal amount of cell-free virus, corresponding to 100 ng of HIV p24 antigen. After 48 h of incubation at 37° C., 5% CO2, β-galactosidase activity was measured using chlorophenol red-β-D-galactopyranoside assays.
Each assay was performed a minimum of three times. The 50% effective concentration (Ec50) was calculated from each dose response curve using the CurveExpert 1.3 software.

Data set [3] can be described thus: Cytotoxicity (CC50), MTT assay on P4 cells. The data set is classed as cell-based. The conditions noted are these: human. The protocol:
as §1
(§2) The 50% cytotoxic concentration (CCso) was determined using a protocol adapted from Pauwels et al. (1988. J. Virol. Methods 20(4):309-21). Briefly, flat bottom 96-well plates were filled with 50 μl of complete medium containing 5.10^3 P4 cells. 2 hours later 50 μl of drug solution were added to the cells. Drugs (dissolved in DMEM, see above) were diluted in six, 5-fold serial dilutions from stock solutions in triplicate wells of a 96-well plate. Cells and compounds were incubated at 37° C. in growth medium for 3 days. Cell viability was determined by MTT assays using the Roche Cell Proliferation KIT. The absorbance (λ=570 nm) was measured on a Benchmark™ Microplate Reader (Biorad) and compared with 12 cell control replicates (no drug added). Each assay was performed at least three times for a total of at least nine replicate wells. This method detects both cytostatic and cytolytic effects of drugs.

Data set [4] deals with HIV-1 with WT (wild type) RT in MT4 cells. The data set can be described thus: Anti-HIV assay on MT4 cell line, WT RT. The data set is classed as cell-based. The protocol: (§3) Wurzburg Jurkat T cells (subclone JR) were transfected with 10 μg of the circularly permuted infectious molecular clone HIVNL4-3 (Adachi et al., 1986. J. Virol, 59 (2), p 284-291). Two days later, co-cultivation with SupT1 cells (a human T-cell lymphoma cell line) was initiated to facilitate rapid production of progeny virions. Production of virus was measured by using the Innotest HIV Antigen mAb p24 kit (Innogenetics). At the peak of production cultures were harvested and filtered. The virus stocks were stored at −80° C. until used.
Anti-HIV activity of the compounds was tested on MT-4 cell line. The MT-4 cell line (Larder et al. 1989. Sciences, Vol. 243 p 1731) was received from the NIH AIDS Research and Reference Reagent Program. These cells were cultured in RPMI medium supplemented with 10% fetal bovine serum (FBS), and 1% Penicillin/Streptomycin. The cultures were split regularly to keep cells densities between 0.3 to 1.2 10^6 cells/ml.
The MT-4 cells rapidly die upon infection by HIV. In this system there is an inverse correlation between cells survival and the amount of viral replication.
Briefly, in the anti-HIV assay exponentially growing MT-4 cells were infected with HIV-1. 100 μl of infected MT-4 cells were seeded in 96-well plate at a concentration of 0.4 10^5 cells/ml, and 100 μl of the different drugs dilutions were added to the cells. After 4 days of incubation at 37° C., 5% CO2, cells survival was measured using MTS (3-(4-5-dimethylthiazol-2-yl)-5-(−(3-carboxymethoxyphenyl)-2-(4-sulfophenyl)-2H-tetrazolium) assays. This compound is reduced by viable cells in a colored soluble formazan salt.
The absorbance was measured on a Benchmark™ Microplate Reader (Biorad) (λ=490 nm) and compared with 12 cell control replicates (nor virus nor drug added) and 12 virus control wells (no drug added). Each assay was performed a minimum of three times. The 50% effective concentration (EC50) was calculated from each dose response curve using the CurveExpert 1.3 software.

Data set [5] relates to HIV-1 with WT (wild type) RT in PBMC. The data set can be described thus: Anti-HIV assay on PBMC, WT RT (p24). It is filed as cell-based. As to the method:
as §3
Anti-HIV activity of the compounds was tested on Peripheral Blood Mononuclear Cells (PBMCs). These cells were separated from the blood of healthy donor using established procedures. PBMCs were cultured in RPMI medium supplemented with 10% fetal bovine serum (FBS), 1% Penicillin/Streptomycin and 20 U/ml of Interleukin-2.
PBMCs isolated from the blood of healthy donor contain CD4^+ T-lymphocytes which are one of the main targets of HIV in infected individuals.
Briefly, in the anti-HIV assay PBMCs, activated with phytohemagglutinin, were infected with HIV-1. 100 μl of infected PBMCs were seeded in 96-well plate at a concentration of 1 10^5 cells/ml, and 100 μl of the different drugs dilutions were added to the cells. After 4 days of incubation at 37° C., 5% CO2, cells cultures supernatants were collected. The amount of the viral capsid protein p24 in the supernatants was measured using the Innotest HIV Antigen mAb P24 kit (Innogenetics).

Data set [6] deals with T1, HIV-1 reverse transcriptase. Kind of data set: RT inhibition as a function of preincubation time with the RT. The data set is classed as biochemical. The source says: Z122 seems to be an irreversible inhibitor of the reverse transcriptase.
Data set [7] has the same target. Kind of data set: RT activity after separation of unbound compound on micro-spin desalting column. It is filed as biochemical. The note with it: after preincubation with RT. The protocol:
After the preincubation, the unbound Z122 and the RT were separated using a micro-spin desalting column.

The subject of the next data set is P4 cells. Kind of data set: Cytotoxicity (CC50), MTT assay on P4 cells. The data set is classed as cell-based. The note with it: 3 days. The protocol:
as §1, §2

Molecules are shown by their SMILES. Like-named read-outs stand apart in the source and are kept apart here.

`CCc1c(C)[nH]c(=O)c(CSCCO)c1OC1CC(C)CC(C)C1` (stereo not shown) [Z121, 5-ethyl-6-methyl-4-[(3,5-dimethylcyclohexyl)oxy]-3-{[(2-hydroxyethyl)sulfanyl]methyl}pyridine-2(1H)-one] showed a melting point of 133 to 134 °C. Also, the “Relative (%) RT activity in vitro (compound added at 10 μM)” value in data set [1] worked out at 1.4%. In data set [2] (Human immunodeficiency virus 1), the 50% effective concentration (EC50) was below 1 nM. Further, in data set [2], the “SI (selectivity index = CC50/EC50)” value is on record as above 27000. In addition, in [3], the midpoint of cytotoxicity, the CC50 at 3 days, lay at 27000 nM. Besides, in data set [4] (Human immunodeficiency virus 1), the EC50 amounted to 14 nM. This compound gave an EC50 in data set [5] (Human immunodeficiency virus 1) below 1 nM. In addition, in data set [6], the “dependence of RT inhibition on time of (pre)incubation with the RT” value was “independent of the preincubation time”. For the same compound, the “change in RT activity after separation of unbound compound (micro-spin desalting column)” value in data set [7] was “significant increase in the RT activity”.
In the case of `CCc1c(C)[nH]c(=O)c(CSCCOC(=O)CCl)c1OC1CC(C)CC(C)C1` (stereo not shown) [Z122], the “Relative (%) RT activity in vitro (compound added at 10 μM)” value in data set [1] is given as 39.1%. For the same compound, the EC50 in data set [2] is 1 nM; in [4] it was below 1 nM; in data set [5] it was below 1 nM. This compound displayed a CC50 in the data set with P4 cells of 27500 nM. Besides, the “dependence of RT inhibition on time of (pre)incubation with the RT” value in [6] was “increases with respect to the time of incubation”. For the same compound, the “change in RT activity after separation of unbound compound (micro-spin desalting column)” value in data set [7] is reported as “did not observe any increase in the RT activity”.
